Data taken from publication PMC4673972 (Bioinformatics, 2015).

Columns and labels:
[1] = target: Bcl-2 (B-cell lymphoma 2) (Homo sapiens, UniProt P10415); experiment: intrinsic tryptophan fluorescence quenching; type: binding
[2] = target: B-cell lymphoma 2 (Bcl-2) (UniProt P10415); experiment: fluorescence polarisation
Sequence of B-cell lymphoma 2 (Bcl-2) (P10415 whole entry): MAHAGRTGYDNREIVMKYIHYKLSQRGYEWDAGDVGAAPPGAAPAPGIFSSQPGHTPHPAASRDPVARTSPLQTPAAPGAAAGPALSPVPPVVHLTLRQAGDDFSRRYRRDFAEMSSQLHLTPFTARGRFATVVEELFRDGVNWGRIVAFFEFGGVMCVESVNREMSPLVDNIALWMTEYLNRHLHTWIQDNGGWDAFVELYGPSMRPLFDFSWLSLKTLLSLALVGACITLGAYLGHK

Sequence of Bcl-2 (B-cell lymphoma 2) (P10415 whole entry): as above

| Kd [1] | Kd [2] | Compound |
| --- | --- | --- |
| 380 ± 80 µM | – | CC(C)(COP(=O)(O)OP(=O)(O)OC[C@H]1O[C@@H](n2cnc3c(N)ncnc32)[C@H](O)[C@@H]1OP(=O)(O)O)[C@@H](O)C(=O)NCCC(=O)NCCS [CoA] |
| – | 0.128 µM | fluorescent-labeled Bax-BH3 peptide |
